ChEMBL document CHEMBL1134244, “Design and synthesis of a new sialyl Lewis X mimetic: how selective are the selectin receptors?” (Bioorg Med Chem Lett, 2001)

Tests used:
E-selectin = target: T1, E-selectin (Homo sapiens, UniProt P16581); experiment: Concentration required to inhibit the interaction of Selectin E and HL-60 cells; type: cell-based
T1 sequence (P16581 whole entry): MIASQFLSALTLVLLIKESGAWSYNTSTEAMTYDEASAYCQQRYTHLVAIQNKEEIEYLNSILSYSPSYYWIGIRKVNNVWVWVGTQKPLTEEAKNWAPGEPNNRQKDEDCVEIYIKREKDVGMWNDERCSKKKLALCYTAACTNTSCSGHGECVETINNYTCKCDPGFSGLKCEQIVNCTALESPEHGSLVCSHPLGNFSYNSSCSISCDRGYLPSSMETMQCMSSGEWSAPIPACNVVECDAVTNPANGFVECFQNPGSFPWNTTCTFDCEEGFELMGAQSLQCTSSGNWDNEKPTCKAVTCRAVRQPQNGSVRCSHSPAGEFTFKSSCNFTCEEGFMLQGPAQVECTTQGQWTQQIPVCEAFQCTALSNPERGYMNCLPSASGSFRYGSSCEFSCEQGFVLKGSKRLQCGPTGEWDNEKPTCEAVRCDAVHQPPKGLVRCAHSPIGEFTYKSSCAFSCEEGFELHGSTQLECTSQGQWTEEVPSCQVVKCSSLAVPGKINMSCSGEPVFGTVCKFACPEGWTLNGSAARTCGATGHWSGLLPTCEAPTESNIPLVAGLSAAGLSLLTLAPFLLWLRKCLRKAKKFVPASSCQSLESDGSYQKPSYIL

P-selectin = target: T2, P-selectin (Homo sapiens, UniProt P16109); experiment: Concentration required to inhibit the interaction of Selectin P and HL-60 cells; type: cell-based
T2 sequence (P16109 whole entry): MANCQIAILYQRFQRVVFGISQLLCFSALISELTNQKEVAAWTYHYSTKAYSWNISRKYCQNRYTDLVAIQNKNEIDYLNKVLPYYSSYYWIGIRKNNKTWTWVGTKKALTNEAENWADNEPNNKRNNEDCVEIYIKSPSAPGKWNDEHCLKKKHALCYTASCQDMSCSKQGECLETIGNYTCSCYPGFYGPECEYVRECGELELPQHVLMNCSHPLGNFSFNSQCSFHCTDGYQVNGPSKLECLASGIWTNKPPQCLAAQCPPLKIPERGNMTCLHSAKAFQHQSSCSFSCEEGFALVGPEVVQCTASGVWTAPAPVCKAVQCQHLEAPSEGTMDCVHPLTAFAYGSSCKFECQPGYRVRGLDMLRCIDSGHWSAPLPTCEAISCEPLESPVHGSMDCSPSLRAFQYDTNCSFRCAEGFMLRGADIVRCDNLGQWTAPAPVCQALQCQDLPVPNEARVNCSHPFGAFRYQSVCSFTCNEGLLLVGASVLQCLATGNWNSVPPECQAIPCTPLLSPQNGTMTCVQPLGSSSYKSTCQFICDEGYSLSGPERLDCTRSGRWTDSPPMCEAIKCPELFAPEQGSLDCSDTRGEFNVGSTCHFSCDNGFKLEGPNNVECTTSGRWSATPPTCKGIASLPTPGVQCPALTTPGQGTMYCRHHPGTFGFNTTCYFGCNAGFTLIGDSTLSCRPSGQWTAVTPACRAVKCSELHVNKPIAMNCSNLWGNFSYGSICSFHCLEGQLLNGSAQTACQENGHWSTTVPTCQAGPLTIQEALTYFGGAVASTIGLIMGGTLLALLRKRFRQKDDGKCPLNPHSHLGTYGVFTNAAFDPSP

Work on `CC(=O)N[C@H]1[C@H]([C@H](O)[C@H](O)CO)O[C@@](O[C@H]2[C@@H](O)[C@@H](CO)O[C@@H](O[C@@H]([C@H](O[C@@H]3O[C@@H](C)[C@@H](O)[C@@H](O)[C@@H]3O)[C@H](C=O)NC(C)=O)[C@H](O)CO)[C@@H]2O)(C(=O)O)C[C@@H]1O` (single isomer, unassigned; enantiomer A) [SIALYL LEWIS X] yielded an IC50 (E-selectin) of 7 mM and an IC50 (P-selectin) of 5 mM.
Work on `CC(=O)N[C@H]1[C@H]([C@H](O)[C@H](O)CO)O[C@@](O[C@H]2[C@@H](O)[C@@H](CO)O[C@@H](O[C@@H]([C@H](O[C@@H]3O[C@@H](C)[C@@H](O)[C@@H](O)[C@@H]3O)[C@H](C=O)NC(C)=O)[C@H](O)CO)[C@@H]2O)(C(=O)O)C[C@@H]1O` (single isomer, unassigned; enantiomer B) [SIALYL LEWIS X] yielded an IC50 (E-selectin) of 5 mM and an IC50 (P-selectin) of 4.5 mM.
With `CC(=O)N[C@H]1[C@H]([C@H](O)[C@H](O)CO)O[C@@](O[C@H]2[C@@H](O)[C@@H](CO)O[C@@H](O[C@@H]([C@H](O[C@@H]3O[C@@H](C)[C@@H](O)[C@@H](O)[C@@H]3O)[C@H](C=O)NC(C)=O)[C@H](O)CO)[C@@H]2O)(C(=O)O)C[C@@H]1O` [SIALYL LEWIS X] the IC50 (E-selectin) was 5 mM and the IC50 (P-selectin) was 5.5 mM.
